In PubChem BioAssay (NCI):
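Dose response: 5 concentrations. Exposure: 48 h. Format: 96-well plates. Endpoint: linear interpolation; highest concentration if not reached. The concentration for full growth arrest is given as TGI.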

Assays:
Test in all cases: inhibition of tumour cell growth, NCI panel, 48 h
[1] = system: HL-60(TB) leukemia
[2] = system: SF-295 CNS
[3] = system: U251 CNS
[4] = system: EKVX NSCLC
[5] = system: DU-145 prostate
[6] = system: SF-539 CNS
[7] = system: MDA-MB-435
[8] = system: OVCAR-3 ovarian
[9] = system: RXF 393 renal
[10] = system: HCT-15 colon
[11] = system: HCT-116 colon
[12] = system: SK-MEL-28 melanoma
[13] = system: CCRF-CEM leukemia
[14] = system: SK-MEL-5 melanoma
[15] = system: UO-31 renal
[16] = system: NCI-H226 lung
[17] = system: NCI-H460 lung
[18] = system: SK-OV-3 ovarian

| Structure (SMILES) | TGI [1] [µM] | TGI [2] [µM] | TGI [3] [µM] | TGI [4] [µM] | TGI [5] [µM] | TGI [6] [µM] | TGI [7] [µM] | TGI [8] [µM] | TGI [9] [µM] | TGI [10] [µM] | TGI [11] [µM] | TGI [12] [µM] | TGI [13] [µM] | TGI [14] [µM] | TGI [15] [µM] | TGI [16] [µM] | TGI [17] [µM] | TGI [18] [µM] |
| --- | --- | --- | --- | --- | --- | --- | --- | --- | --- | --- | --- | --- | --- | --- | --- | --- | --- | --- |
| S=C(S)N1CCN(c2ccc(Cl)c(Cl)c2)CC1 | 44.3 | > 100 | 90.7 | > 100 | 57 | 59.4 | 37.4 | 50 | > 100 | > 100 | 29.5 | 62.7 | > 100 | 30.5 | – | – | – | – |
| O=C(OCC1OC(c2nn[nH]n2)C(OC(=O)c2ccccc2)C1OC(=O)c1ccccc1)c1ccccc1 (stereo not drawn) | > 100 | > 100 | > 100 | > 100 | > 100 | > 100 | > 100 | > 100 | > 100 | > 100 | > 100 | – | > 100 | > 100 | > 100 | > 100 | > 100 | > 100 |
| CCOC(=O)C1=c2[nH]c3cccc4cccc(c43)n2C=C(C(C)=O)C1CC(C)=O (stereo not drawn) | 59.2 | > 100 | > 100 | > 100 | > 100 | – | > 100 | > 100 | > 100 | > 100 | > 100 | > 100 | > 100 | > 100 | > 100 | – | > 100 | > 100 |
| ClC1=C(Cc2ccccc2)Cc2ccc3c(c21)CCC3 | 41.5 | 91.8 | 39.3 | > 100 | > 100 | > 100 | 75.6 | 87.2 | 45 | > 100 | 94.9 | > 100 | 90.1 | 40.6 | 69.6 | 74.1 | – | > 100 |
| CN(C)c1ccc(/C=C(\NC(=O)c2ccccc2)C2NC(Cc3c[nH]c4ccccc34)C(=O)O2)cc1 (stereo not drawn) | 39.9 | > 100 | > 100 | > 100 | > 100 | – | > 100 | > 100 | > 100 | > 93.5 | > 100 | > 100 | > 100 | > 100 | > 100 | > 100 | > 74.5 | > 100 |
| CC(C)NC(=O)OCc1c(COC(=O)NC(C)C)n(C)c2c1ccc1ccccc12 | 22.4 | 17.2 | 4.24 | 10.4 | 14.4 | 3.5 | 4.9 | 12.4 | 2.65 | 3.09 | 2.82 | 5.75 | – | 6.63 | 4.09 | 5.43 | 7.7 | 22.2 |
| CC1(C)CN=C(Nc2cccc(C(F)(F)F)c2)S1 | > 100 | > 100 | > 100 | > 100 | > 100 | > 100 | > 100 | > 100 | > 100 | > 100 | > 100 | > 100 | > 100 | > 100 | > 100 | > 100 | – | > 100 |
| CCOC(=O)NC(NC(C)CC)(C(F)(F)F)C(F)(F)F (stereo not drawn) | > 100 | > 100 | > 100 | > 100 | > 100 | > 100 | > 100 | > 100 | > 100 | > 100 | > 100 | > 100 | > 100 | > 100 | > 100 | > 100 | > 100 | – |
| O=[N+]([O-])c1cc(-[n+]2cc([O-])on2)ccc1F | 49 | 31.5 | 32.4 | 34.8 | 25.4 | – | 29.8 | 32.6 | 27.2 | 52.8 | 28.6 | 29.8 | 38.6 | 28.4 | 13.1 | 47 | 39.3 | 35.8 |
| COc1ccccc1Cn1nc(OC)c2cc([N+](=O)[O-])ccc21 | > 100 | 20 | 29 | > 73.6 | > 100 | > 53.5 | > 100 | > 100 | 11.2 | > 100 | > 100 | > 100 | > 100 | > 100 | > 79.6 | > 100 | > 100 | – |
| OC1CN2CCS[C@H]2C(O)C1O (stereo partly drawn) | > 100 | > 100 | > 100 | > 100 | > 100 | – | > 100 | > 100 | > 100 | > 100 | > 100 | > 100 | > 100 | > 100 | > 100 | > 100 | > 100 | > 100 |
